Results as given in US20240358693A1, “METHODS OF TREATING PAIN” (Aisa Pharma, Inc., priority 2023, published 2024).

System: participants with SSc-RP
Experiment: Scleroderma Health Assessment Questionnaire (SHAQ): disability indices and visual analog scales
Format: in vivo, human
Conditions: PP Population, Part A, SSc patients, sensitivity analysis
Source text: The standard, validated, patient reported outcome measures tool for SSc patients, the Scleroderma Health Assessment Questionnaire (SHAQ), will be used to assess the participant qualify of life. Details are attached in the Appendix. The participant quality of life will be scored, and a disability index calculated for each questionnaire completed by the patient at Screening and each in-clinic visit. The absolute change in participant quality of life from baseline to the end of each dosing period will be calculated similar to frequency data as before.
The SHAQ includes a Raynaud's VAS, which will be reported at screening and each in-clinic visit. The absolute change in Raynaud-VAS, assessed by the participants response to the SHAQ question ‘In the past 7 days, how much have your Raynaud's interfered with your daily activities?’ at baseline and the end of each dosing period will be calculated similar to frequency data as before.
The SHAQ is used to calculate a Disability Index to assess the participant qualify of life. The eight categories assessed by the Disability Index are 1) dressing and grooming, 2) arising, 3) eating, 4) walking, 5) hygiene, 6) reach, 7) grip, and 8) common daily activities. For each of these categories, patients report the amount of difficulty they have in performing two or three specific activities.
There are four possible responses for the Disability Index questions: • Without any difficulty=0 • With some difficulty=1 • With much difficulty=2 • Unable to do=3. • The highest score reported by the patient for any component question of the eight categories determines the score for that category. • If a component question is left blank or the response is too ambiguous to assign a score, then the score for that category is determined by the remaining completed question(s). • If all component questions are blank or if more than one answer is given, then follow up with the respondent is required. • If the respondent's mark is between the response columns, then move it to the closest one. If it's directly between the two, move it to the higher one.
Each of the disability items on the SHAQ has a companion aids/devices variable that is used to record what type(s) of assistance, if any, the participant uses for his/her usual activities. These variables (see below) are coded as follows: • 0=No assistance is needed. • 1=A special device is used by the patient in his/her usual activities. • 2=The patient usually needs help from another person. • 3=The patient usually needs BOTH a special device AND help from another person.
The scoring variables and scoring rules permit the computation of two disability indices, the Standard Disability Index and the Alternative Disability Index.
This question results in a new set of category scores that are computed by adjusting the score for each category, if necessary, based on the patient's use of an aid or device or assistance for that category. If either devices and/or help from another person are checked for a category, the score is set to “2”, unless the score is already “3” (i.e., scores of “0” or “1” are increased to “2”). For example, if the highest score for the dressing category is “1”, and the patient says they use a device for dressing, the computed category score would be “2”. The sum of the computed categories scores is then calculated and divided by the number of categories answered. This gives a score in the 0 to 3 range.
The aid and device variables are not used to calculate the alternative disability index; it is calculated by adding the scores for each of the categories and dividing by the number of categories answered. This gives a score in the 0 to 3 range.
The standard, validated, patient reported outcome measures tool for SSc patients, the SHAQ, was collected at the time points specified in the study schedules (FIG. 2 and FIGS. 4A and 4B) to assess the participant's quality of life. The SHAQ included a Raynaud's VAS that will also be reported separately.

[1] = Day 12 vs baseline, Subject 01-110 Day 12 score excluded
[2] = In-Clinic Visit (Day 12), Subject 01-110 Day 12 score excluded

COCCOC(=O)C1=C(C)NC(C)=C(C(=O)OC/C=C/c2ccccc2)C1c1cccc([N+](=O)[O-])c1 (stereo not drawn) [Pooled Cilnidipine]
SHAQ Visual Analogue Scale - Raynaud’s, Change from Baseline, Min (Day 12 vs baseline): −2.40
SHAQ Visual Analogue Scale - Raynaud’s, Change from Baseline, Q1 (Day 12 vs baseline): −1.050
SHAQ Visual Analogue Scale - Raynaud’s, Change from Baseline, Q3 (Day 12 vs baseline): 0.350
SHAQ Visual Analogue Scale - Raynaud’s, Percent Change from Baseline, Max (Day 12 vs baseline): 136.4%
SHAQ Visual Analogue Scale - Raynaud’s, Percent Change from Baseline, Mean (Day 12 vs baseline): −18.62%
SHAQ Visual Analogue Scale - Raynaud’s, Percent Change from Baseline, Median (Day 12 vs baseline): −33.33%
SHAQ Visual Analogue Scale - Raynaud’s, Percent Change from Baseline, Min (Day 12 vs baseline): −100.0%
SHAQ Visual Analogue Scale - Raynaud’s, Percent Change from Baseline, Q1 (Day 12 vs baseline): −68.57%
SHAQ Visual Analogue Scale - Raynaud’s, Percent Change from Baseline, Q3 (Day 12 vs baseline): −2.27%
SHAQ Visual Analogue Scale - Breathing Problems, Change from Baseline, Max [1]: 0.60
SHAQ Visual Analogue Scale - Breathing Problems, Change from Baseline, Mean [1]: −0.388
SHAQ Visual Analogue Scale - Breathing Problems, Change from Baseline, Median [1]: 0.000
SHAQ Visual Analogue Scale - Breathing Problems, Change from Baseline, Min [1]: −2.00
SHAQ Visual Analogue Scale - Breathing Problems, Change from Baseline, Q1 [1]: −1.000
SHAQ Visual Analogue Scale - Breathing Problems, Change from Baseline, Q3 [1]: 0.150
SHAQ Visual Analogue Scale - Breathing Problems, Percent Change from Baseline, Max [1]: 150.0%
SHAQ Visual Analogue Scale - Breathing Problems, Percent Change from Baseline, Mean [1]: −0.22%
SHAQ Visual Analogue Scale - Breathing Problems, Percent Change from Baseline, Median [1]: −16.00%
SHAQ Visual Analogue Scale - Breathing Problems, Percent Change from Baseline, Min [1]: −100.0%
SHAQ Visual Analogue Scale - Breathing Problems, Percent Change from Baseline, Q1 [1]: −66.67%
SHAQ Visual Analogue Scale - Breathing Problems, Percent Change from Baseline, Q3 [1]: 31.58%
SHAQ Alternative Disability Index, Max (In-Clinic Visit (Day 12)): 1.25
SHAQ Alternative Disability Index, Mean (In-Clinic Visit (Day 12)): 0.391
SHAQ Alternative Disability Index, Median (In-Clinic Visit (Day 12)): 0.188
SHAQ Alternative Disability Index, Min (In-Clinic Visit (Day 12)): 0.00
SHAQ Alternative Disability Index, Q1 (In-Clinic Visit (Day 12)): 0.000
SHAQ Alternative Disability Index, Q3 (In-Clinic Visit (Day 12)): 0.750
SHAQ Visual Analogue Scale - Finger Ulcers, Max (In-Clinic Visit (Day 12)): 1.90
SHAQ Visual Analogue Scale - Finger Ulcers, Mean (In-Clinic Visit (Day 12)): 0.463
SHAQ Visual Analogue Scale - Finger Ulcers, Median (In-Clinic Visit (Day 12)): 0.000
SHAQ Visual Analogue Scale - Finger Ulcers, Min (In-Clinic Visit (Day 12)): 0.00
SHAQ Visual Analogue Scale - Finger Ulcers, Q1 (In-Clinic Visit (Day 12)): 0.000
SHAQ Visual Analogue Scale - Finger Ulcers, Q3 (In-Clinic Visit (Day 12)): 0.900
SHAQ Visual Analogue Scale - Intestinal Problems, Max (In-Clinic Visit (Day 12)): 3.80
SHAQ Visual Analogue Scale - Intestinal Problems, Mean (In-Clinic Visit (Day 12)): 0.975
SHAQ Visual Analogue Scale - Intestinal Problems, Median (In-Clinic Visit (Day 12)): 0.300
SHAQ Visual Analogue Scale - Intestinal Problems, Min (In-Clinic Visit (Day 12)): 0.00
SHAQ Visual Analogue Scale - Intestinal Problems, Q1 (In-Clinic Visit (Day 12)): 0.000
SHAQ Visual Analogue Scale - Intestinal Problems, Q3 (In-Clinic Visit (Day 12)): 1.700
SHAQ Visual Analogue Scale - Overall Disease Severity, Max (In-Clinic Visit (Day 12)): 5.20
SHAQ Visual Analogue Scale - Overall Disease Severity, Mean (In-Clinic Visit (Day 12)): 1.475
SHAQ Visual Analogue Scale - Overall Disease Severity, Median (In-Clinic Visit (Day 12)): 1.300
SHAQ Visual Analogue Scale - Overall Disease Severity, Min (In-Clinic Visit (Day 12)): 0.00
SHAQ Visual Analogue Scale - Overall Disease Severity, Q1 (In-Clinic Visit (Day 12)): 0.350
SHAQ Visual Analogue Scale - Overall Disease Severity, Q3 (In-Clinic Visit (Day 12)): 1.650
SHAQ Visual Analogue Scale - Pain, Max (In-Clinic Visit (Day 12)): 4.30
SHAQ Visual Analogue Scale - Pain, Mean (In-Clinic Visit (Day 12)): 1.875
SHAQ Visual Analogue Scale - Pain, Median (In-Clinic Visit (Day 12)): 1.550
SHAQ Visual Analogue Scale - Pain, Min (In-Clinic Visit (Day 12)): 0.00
SHAQ Visual Analogue Scale - Pain, Q1 (In-Clinic Visit (Day 12)): 0.550
SHAQ Visual Analogue Scale - Pain, Q3 (In-Clinic Visit (Day 12)): 3.250
SHAQ Visual Analogue Scale - Raynaud’s, Max (In-Clinic Visit (Day 12)): 4.40
SHAQ Visual Analogue Scale - Raynaud’s, Mean (In-Clinic Visit (Day 12)): 1.900
SHAQ Visual Analogue Scale - Raynaud’s, Median (In-Clinic Visit (Day 12)): 1.250
SHAQ Visual Analogue Scale - Raynaud’s, Min (In-Clinic Visit (Day 12)): 0.00
SHAQ Visual Analogue Scale - Raynaud’s, Q1 (In-Clinic Visit (Day 12)): 0.700
SHAQ Visual Analogue Scale - Raynaud’s, Q3 (In-Clinic Visit (Day 12)): 3.450
SHAQ Visual Analogue Scale - Breathing Problems, Max [2]: 6.30
SHAQ Visual Analogue Scale - Breathing Problems, Mean [2]: 1.213
SHAQ Visual Analogue Scale - Breathing Problems, Median [2]: 0.200
SHAQ Visual Analogue Scale - Breathing Problems, Min [2]: 0.00
SHAQ Visual Analogue Scale - Breathing Problems, Q1 [2]: 0.000
SHAQ Visual Analogue Scale - Breathing Problems, Q3 [2]: 1.500
